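These data come from cells grown in 96-well plates and exposed to compound for 48 hours at five concentrations. At the GI50, growth is halved.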 Active and inactive are the calls of the source. Cut-off read from the data, not from the text of the source: active = GI50 up to about 1.1 µM and inactive = higher.
How the values were obtained:
Assay in all cases: NCI anticancer screen, dose series, 48 h
A549 = system: A549
HT-29 = system: HT-29
DMS-273 = system: DMS-273
RPMI-8226 = system: RPMI-8226
OVCAR-8 = system: OVCAR-8
CCRF-CEM = system: CCRF-CEM
OVCAR-3 = system: OVCAR-3
NCI-H226 = system: NCI-H226
EKVX = system: EKVX
HCC 2998 = system: HCC 2998
KM12 = system: KM12
HOP-62 = system: HOP-62
HCT-116 = system: HCT-116
SK-MEL-28 = system: SK-MEL-28
NCI-H460 = system: NCI-H460
SNB-19 = system: SNB-19
SK-MEL-2 = system: SK-MEL-2
HOP-92 = system: HOP-92
T47D = system: T47D
MDA-MB-435 = system: MDA-MB-435

Measured: GI50

O=C1CCC2(CCC(=O)NC2=O)C(=O)N1
inactive: A549 > 100 µM | HT-29 > 100 µM | DMS-273 > 100 µM | RPMI-8226 > 100 µM | OVCAR-8 > 100 µM | CCRF-CEM > 100 µM | OVCAR-3 > 100 µM | NCI-H226 > 100 µM | EKVX > 100 µM | HCC 2998 > 100 µM | KM12 > 100 µM | HOP-62 > 100 µM | HCT-116 > 100 µM | SK-MEL-28 > 100 µM | NCI-H460 > 100 µM | SNB-19 > 100 µM

O=C(NO)C(=O)Nc1cc(Cl)ccc1Cl
inactive: A549 > 100 µM | HT-29 > 100 µM | DMS-273 42.7 µM | SK-MEL-2 > 100 µM | RPMI-8226 > 100 µM | HOP-92 69.5 µM | OVCAR-8 > 100 µM | CCRF-CEM 51.1 µM | OVCAR-3 90.6 µM | NCI-H226 > 100 µM | EKVX > 100 µM | HCC 2998 78 µM | KM12 > 100 µM | HOP-62 > 100 µM | HCT-116 > 100 µM | SK-MEL-28 > 100 µM | NCI-H460 > 100 µM | SNB-19 > 100 µM

Cc1ccc(C2(C)NC(=S)N(NC(N)=S)C2=S)cc1 (configuration not stated)
inactive: A549 > 100 µM | DMS-273 > 100 µM | SK-MEL-2 > 100 µM | RPMI-8226 32.7 µM | OVCAR-8 > 100 µM | CCRF-CEM 24.6 µM | OVCAR-3 > 100 µM | NCI-H226 > 100 µM | EKVX > 100 µM | HCC 2998 > 100 µM | HOP-62 > 100 µM | HCT-116 > 100 µM | SK-MEL-28 > 100 µM | NCI-H460 > 100 µM | SNB-19 > 100 µM

CCOP(=O)(C/C(=N/NC(C)(C)C)C(=O)Nc1nc2ccc(C)cc2s1)OCC
inactive: A549 > 100 µM | HT-29 > 100 µM | DMS-273 > 100 µM | SK-MEL-2 > 100 µM | OVCAR-8 > 100 µM | CCRF-CEM > 100 µM | OVCAR-3 > 100 µM | NCI-H226 > 100 µM | EKVX > 100 µM | HCC 2998 > 100 µM | KM12 > 100 µM | HOP-62 > 100 µM | HCT-116 > 100 µM | SK-MEL-28 > 100 µM | NCI-H460 > 100 µM | SNB-19 > 100 µM

Cc1ccc(SSCCCS(=O)O)cc1
inactive: A549 31.9 µM | HT-29 41.6 µM | DMS-273 24.5 µM | SK-MEL-2 37.1 µM | OVCAR-8 21.6 µM | OVCAR-3 47 µM | EKVX 33.1 µM | HCC 2998 60 µM | KM12 28.8 µM | HOP-62 29.2 µM | HCT-116 30.1 µM | SK-MEL-28 45.7 µM | NCI-H460 63.1 µM | SNB-19 49.7 µM

N#CCCN(c1ccc(-c2nnc(NC(=O)CNNC(=O)CC(=O)Nc3ccccc3)s2)cc1)S(=O)(=O)c1ccccc1
inactive: A549 88.1 µM | HT-29 > 100 µM | DMS-273 > 100 µM | SK-MEL-2 > 100 µM | RPMI-8226 > 100 µM | HOP-92 79.6 µM | OVCAR-8 > 100 µM | CCRF-CEM 90.8 µM | OVCAR-3 52.6 µM | NCI-H226 59.3 µM | EKVX > 100 µM | HCC 2998 > 100 µM | KM12 > 100 µM | HOP-62 > 100 µM | HCT-116 71.1 µM | SK-MEL-28 > 100 µM | NCI-H460 > 100 µM | SNB-19 > 100 µM

C/C(CC(=O)Nc1ccc([N+](=O)[O-])cc1)=N/N=C(N)N
inactive: A549 > 100 µM | HT-29 > 100 µM | DMS-273 > 100 µM | SK-MEL-2 > 100 µM | RPMI-8226 > 10 µM | HOP-92 > 100 µM | OVCAR-8 > 100 µM | CCRF-CEM > 100 µM | OVCAR-3 > 100 µM | NCI-H226 > 100 µM | EKVX > 100 µM | HCC 2998 > 100 µM | KM12 > 100 µM | HOP-62 > 100 µM | HCT-116 > 100 µM | SK-MEL-28 > 100 µM | NCI-H460 > 100 µM

O=[N+]([O-])c1ccc(C(O)/C(=N/O)c2nc3ccc(Cl)cc3nc2O)cc1 (configuration not stated)
inactive: A549 > 100 µM | HT-29 > 100 µM | DMS-273 > 100 µM | SK-MEL-2 > 100 µM | RPMI-8226 > 100 µM | OVCAR-8 > 100 µM | CCRF-CEM > 100 µM | EKVX > 100 µM | HCC 2998 > 100 µM | KM12 > 100 µM | HOP-62 > 100 µM | HCT-116 > 100 µM | NCI-H460 > 100 µM | SNB-19 > 100 µM

O=C(Nc1cccc2c1C(=O)c1c(NC(=O)c3ccccc3)ccc(Nc3cccc4c3C(=O)c3ccccc3C4=O)c1C2=O)c1ccccc1
inactive: A549 > 100 µM | DMS-273 > 100 µM | SK-MEL-2 > 100 µM | RPMI-8226 > 100 µM | OVCAR-8 > 100 µM | CCRF-CEM > 100 µM | OVCAR-3 > 100 µM | NCI-H226 > 100 µM | EKVX > 100 µM | HCC 2998 > 100 µM | KM12 > 100 µM | HOP-62 > 100 µM | HCT-116 > 100 µM | SK-MEL-28 > 100 µM | NCI-H460 > 100 µM | SNB-19 > 100 µM

Cc1cc(C(C)C)cc(=O)c(O)c1
inactive: A549 > 100 µM | HT-29 > 100 µM | DMS-273 > 100 µM | RPMI-8226 > 100 µM | HOP-92 > 100 µM | OVCAR-8 > 100 µM | CCRF-CEM > 100 µM | OVCAR-3 > 100 µM | NCI-H226 > 100 µM | EKVX > 100 µM | HCC 2998 > 100 µM | KM12 > 100 µM | HOP-62 > 100 µM | HCT-116 > 100 µM | SK-MEL-28 > 100 µM | NCI-H460 > 100 µM | SNB-19 > 100 µM

NC12CC3CC(C1)CC(C(=O)O)(C3)C2
inactive: A549 > 100 µM | HT-29 > 100 µM | DMS-273 > 100 µM | RPMI-8226 > 100 µM | HOP-92 > 100 µM | OVCAR-8 > 100 µM | CCRF-CEM > 100 µM | OVCAR-3 > 100 µM | EKVX > 100 µM | HCC 2998 > 100 µM | KM12 > 100 µM | HOP-62 > 100 µM | HCT-116 > 100 µM | SK-MEL-28 > 100 µM | NCI-H460 > 100 µM | SNB-19 > 100 µM

CCOC(=O)/C([O-])=C(\C(=O)OCC)[n+]1c(C)n(C)c2ccccc21
inactive: A549 > 100 µM | HT-29 > 100 µM | DMS-273 > 100 µM | SK-MEL-2 > 100 µM | RPMI-8226 > 100 µM | OVCAR-8 > 100 µM | CCRF-CEM > 100 µM | OVCAR-3 > 100 µM | NCI-H226 > 100 µM | EKVX > 100 µM | HCC 2998 > 100 µM | KM12 > 100 µM | HOP-62 > 100 µM | HCT-116 > 100 µM | SK-MEL-28 > 100 µM | NCI-H460 > 100 µM | SNB-19 > 100 µM

CCSC(=O)C1(C)OC2CCCCC2C1=O (configuration not stated)
inactive: A549 > 100 µM | DMS-273 > 100 µM | SK-MEL-2 > 100 µM | RPMI-8226 > 100 µM | OVCAR-8 > 100 µM | CCRF-CEM > 100 µM | NCI-H226 > 100 µM | HCC 2998 > 100 µM | KM12 > 100 µM | HOP-62 > 100 µM | HCT-116 > 100 µM | SK-MEL-28 > 100 µM | NCI-H460 > 100 µM | SNB-19 > 100 µM

O=C1CC(c2c[nH]c3ccccc23)C(=O)N1c1ccccc1 (configuration not stated)
inactive: A549 > 100 µM | HT-29 > 100 µM | DMS-273 > 100 µM | SK-MEL-2 > 100 µM | RPMI-8226 > 100 µM | OVCAR-8 > 100 µM | CCRF-CEM > 100 µM | OVCAR-3 > 100 µM | NCI-H226 > 100 µM | EKVX > 100 µM | HCC 2998 > 100 µM | KM12 > 100 µM | HOP-62 > 100 µM | HCT-116 > 100 µM | SK-MEL-28 > 100 µM | NCI-H460 > 100 µM

CC(=O)N(C(C)=O)c1ncc(-n2nc(-c3ccccc3)cc2-c2ccccc2)c(-c2ccccc2)n1
inactive: A549 > 10 µM | HT-29 4.65 µM | SK-MEL-2 > 10 µM | RPMI-8226 > 10 µM | HOP-92 > 10 µM | T47D > 10 µM | OVCAR-8 > 10 µM | CCRF-CEM 9.75 µM | OVCAR-3 > 10 µM | NCI-H226 > 10 µM | EKVX > 10 µM | HCC 2998 > 10 µM | KM12 6.17 µM | HOP-62 > 10 µM | HCT-116 4.82 µM | SK-MEL-28 > 10 µM | MDA-MB-435 3.52 µM | NCI-H460 > 10 µM | SNB-19 > 10 µM

COc1ccc(-c2cs/c(=N\c3ccccc3)n2CC(O)c2ccc([N+](=O)[O-])cc2)cc1 (configuration not stated)
inactive: A549 > 100 µM | HT-29 > 100 µM | SK-MEL-2 > 100 µM | RPMI-8226 6.37 µM | HOP-92 > 100 µM | T47D 5.42 µM | OVCAR-8 > 100 µM | CCRF-CEM > 71.1 µM | OVCAR-3 > 100 µM | NCI-H226 > 100 µM | EKVX > 100 µM | HCC 2998 > 100 µM | KM12 > 100 µM | HOP-62 > 100 µM | HCT-116 > 29.9 µM | SK-MEL-28 > 100 µM | MDA-MB-435 > 100 µM | NCI-H460 > 100 µM | SNB-19 > 100 µM

Reference: ChEMBL document CHEMBL1201862, “PubChem BioAssay data set” (2004)
